{"source": "paper PMC11820700", "about": "“Antioxidant, Enzyme-Inhibitory and Antimicrobial Activity of Underutilized Wheat and Maize Crop Residues” (Plants, 2025)", "key": {"[1]": {"conditions": "cited from earlier work"}, "[2]": {"assay": "DPPH free radical scavenging assay"}, "[3]": {"assay": "ABTS free radical scavenging assay"}, "[4]": {"assay": "FRAP ferric reducing power assay"}, "[5]": {"assay": "TRC (total reducing capacity) ferric reducing power assay", "conditions": "L-ascorbic acid equivalents"}, "[6]": {"molecular_target": "T1, α-amylase from porcine pancreas (Sus scrofa, UniProt P00690)", "T1 construct": "purchased Merck KGaA (Darmstadt, Germany) type VI-B (catalogue number not given); host or cells: porcine pancreas", "T1 sequence (P00690 16-511)": "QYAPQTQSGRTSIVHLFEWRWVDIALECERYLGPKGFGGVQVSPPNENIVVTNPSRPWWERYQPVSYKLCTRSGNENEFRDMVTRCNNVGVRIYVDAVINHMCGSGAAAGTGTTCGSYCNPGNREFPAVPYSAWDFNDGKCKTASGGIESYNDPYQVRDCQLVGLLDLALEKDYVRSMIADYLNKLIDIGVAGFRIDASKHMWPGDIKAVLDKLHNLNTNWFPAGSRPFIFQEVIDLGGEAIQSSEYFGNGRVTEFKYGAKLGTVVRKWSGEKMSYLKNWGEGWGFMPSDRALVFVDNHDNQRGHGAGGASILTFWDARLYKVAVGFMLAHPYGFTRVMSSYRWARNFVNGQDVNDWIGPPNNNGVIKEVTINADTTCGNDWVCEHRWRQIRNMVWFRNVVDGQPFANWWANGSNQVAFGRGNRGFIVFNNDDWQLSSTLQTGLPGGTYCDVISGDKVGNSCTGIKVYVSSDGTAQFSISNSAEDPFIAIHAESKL", "assay": "biochemical", "conditions": "read-out: α-amilase IC50 (converted)"}, "[7]": {"molecular_target": "acetylcholinesterase (AChE) from Electrophorus electricus (Electrophorus electricus, UniProt O42275)", "sequence (O42275 24-633 limits assumed)": "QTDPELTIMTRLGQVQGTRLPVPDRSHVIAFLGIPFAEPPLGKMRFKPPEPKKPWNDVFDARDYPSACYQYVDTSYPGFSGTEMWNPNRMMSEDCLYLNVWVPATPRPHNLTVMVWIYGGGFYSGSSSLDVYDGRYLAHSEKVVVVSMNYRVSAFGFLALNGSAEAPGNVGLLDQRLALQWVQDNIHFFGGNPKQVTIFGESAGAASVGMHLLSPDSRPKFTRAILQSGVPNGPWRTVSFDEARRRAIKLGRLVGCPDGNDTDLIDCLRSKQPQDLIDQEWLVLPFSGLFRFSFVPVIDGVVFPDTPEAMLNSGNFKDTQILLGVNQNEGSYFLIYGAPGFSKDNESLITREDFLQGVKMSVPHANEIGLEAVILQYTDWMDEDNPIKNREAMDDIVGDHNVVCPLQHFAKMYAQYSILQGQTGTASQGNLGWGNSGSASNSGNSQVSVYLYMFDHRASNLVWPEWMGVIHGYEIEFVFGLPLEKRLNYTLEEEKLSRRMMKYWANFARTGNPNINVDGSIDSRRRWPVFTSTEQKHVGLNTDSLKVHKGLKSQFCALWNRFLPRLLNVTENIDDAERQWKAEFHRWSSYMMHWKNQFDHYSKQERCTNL", "assay": "biochemical"}, "[8]": {"tested_on": "Staphylococcus aureus ATCC 6538", "assay": "Broth microdilution MIC", "format": "cell-based", "conditions": "ATCC6538, 24 h, extracts 62.5–1000, compounds 31.25–500 µg/mL tested, read-out: Minimal Inhibitory Concentrations MICs"}, "[9]": {"tested_on": "Enterococcus faecalis ATCC 29212", "assay": "Broth microdilution MIC", "format": "cell-based"}, "[10]": {"tested_on": "Bacillus subtilis ATCC 6633", "assay": "Broth microdilution MIC", "format": "cell-based"}, "[11]": {"tested_on": "Escherichia coli ATCC 8739", "assay": "Broth microdilution MIC", "format": "cell-based", "conditions": "ATCC8739, 24 h, read-out: Minimal Inhibitory Concentrations MICs"}, "[12]": {"tested_on": "Klebsiella pneumoniae NCIMB 9111", "assay": "Broth microdilution MIC", "format": "cell-based", "conditions": "NCIMB9111, 24 h, read-out: Minimal Inhibitory Concentrations MICs"}, "[13]": {"tested_on": "Salmonella abony NCTC 6017", "assay": "Broth microdilution MIC", "format": "cell-based", "conditions": "Salmonella enterica, NCTC6017; Salmonella abony; 24 h; read-out: Minimal Inhibitory Concentrations MICs"}, "[14]": {"tested_on": "Pseudomonas aeruginosa ATCC 9027", "assay": "Broth microdilution MIC", "format": "cell-based", "conditions": "ATCC9027, 24 h, read-out: Minimal Inhibitory Concentrations MICs"}, "[15]": {"tested_on": "Candida albicans ATCC 10231", "assay": "Broth microdilution MIC", "format": "cell-based"}, "α-amylase": {"molecular_target": "α-amylase", "conditions": "ref Jeong et al. (2012) [29], cited from earlier work"}, "α-glucosidase": {"molecular_target": "α-glucosidase", "conditions": "cited from earlier work"}, "[16]": {"tested_on": "three tested Gram-positive bacteria", "parameters": "method as in Lou et al. (2012) [44]", "conditions": "ref Lou et al. (2012) [44]; cited from earlier work"}, "Gram-negative bacteria": {"tested_on": "Gram-negative bacteria", "parameters": "method as in Lou et al. (2012) [44]", "conditions": "ref Lou et al. (2012) [44]; cited from earlier work"}, "[17]": {"tested_on": "clinical isolates of both Gram-positive and Gram-negative bacteria", "parameters": "method as in Alves et al. (2013) [45]", "conditions": "ref Alves et al. (2013) [45]; cited from earlier work"}, "[18]": {"parameters": "method as in Glišić et al. (2024) [4]", "conditions": "ref Glišić et al. (2024) [4]; cited from earlier work"}, "[19]": {"parameters": "method as in Glišić et al. (2024) [4]", "conditions": "ref Glišić et al. (2024) [4]; cited from earlier work", "remark": "listed apart in the source"}, "[20]": {"parameters": "method as in Glišić et al. (2024) [4]", "conditions": "ref Glišić et al. (2024) [4]; cited from earlier work", "remark": "listed apart in the source"}, "tyrosinase": {"molecular_target": "tyrosinase", "conditions": "ref Wille and Berhow (2011) [37]; cited from earlier work"}, "[21]": {"molecular_target": "acetylcholinesterase (AChE)", "conditions": "ref Sim et al. (2014) [39]; cited from earlier work"}, "[22]": {"conditions": "isolated from medicinal rice (Oryza sativa L.), ref Mohanlal et al. (2011) [7]"}}, "note": "Where “and” joins values, the source holds several entries; their conditions need not be identical. Identical values can stand only once. Like-named read-outs stand apart in the source and are kept apart here. Marks after values point to notes of the source that are not given here."}
{"smiles": "O=c1c(O)c(-c2ccc(O)c(O)c2)oc2cc(O)cc(O)c12", "note": "[quercetin]", "values": [{"measurement": "DPPH IC50", "setting": "[1]; [22]", "result": 42.98, "unit": "mg/L"}]}
{"smiles": "O=C(O)/C=C/c1ccc(O)cc1", "note": "[p-CA, p-coumaric acid]", "values": [{"measurement": "DPPH IC50", "setting": "[2]", "result": "2.96 ± 0.16 ^a mg/mL"}, {"measurement": "ABTS IC50", "setting": "[3]", "result": "0.0256 ± 0.0012 ^c mg/mL"}, {"measurement": "FRAP", "setting": "[4]", "result": "0.92 ± 0.02 ^c µmol Fe^2+/g"}, {"measurement": "TRC", "setting": "[5]", "result": "1810.89 ± 116.14 ^b mg L-AAE/g"}, {"measurement": "TRC", "setting": "[5]; listed as p-Coumaric acid", "result": 1810.89, "unit": "mg L-AAE/g"}, {"measurement": "IC50", "setting": "[6]", "result": 167, "unit": "mM"}, {"measurement": "IC50", "setting": "[7]", "result": 63.3, "unit": "mM"}, {"measurement": "MIC", "setting": "[8]", "result": 62.5, "unit": "mg/L"}, {"measurement": "Minimal Inhibitory Concentrations MICs", "setting": "[9]; 24 h", "result": 31.25, "unit": "µg/mL"}, {"measurement": "MIC", "setting": "[9]; ATCC29212, 24 h, read-out: Minimal Inhibitory Concentrations MICs", "result": 31.2, "unit": "mg/L"}, {"measurement": "Minimal Inhibitory Concentrations MICs", "setting": "[10]; 24 h", "result": 31.25, "unit": "µg/mL"}, {"measurement": "MIC", "setting": "[10]; ATCC6633, 24 h, read-out: Minimal Inhibitory Concentrations MICs", "result": 31.2, "unit": "mg/L"}, {"measurement": "MIC", "setting": "[11]", "result": "> 500", "unit": "mg/L"}, {"measurement": "MIC", "setting": "[12]", "result": "> 500", "unit": "mg/L"}, {"measurement": "MIC", "setting": "[13]", "result": "> 500", "unit": "mg/L"}, {"measurement": "MIC", "setting": "[14]", "result": "> 500", "unit": "mg/L"}, {"measurement": "Minimal Inhibitory Concentrations MICs", "setting": "[15]; 48 h", "result": 250, "unit": "µg/mL"}, {"measurement": "MIC", "setting": "[15]; ATCC10231, 48 h, read-out: Minimal Inhibitory Concentrations MICs", "result": 250, "unit": "mg/L"}, {"measurement": "DPPH radical inhibition", "setting": "[1]; concentrations 50–1000 µg/mL, ref Jeong et al. (2010) [24]", "result": "10.3–26.9%"}, {"measurement": "α-amylase IC50", "setting": "α-amylase; mg/mL figure given in parentheses beside mM", "result": "> 4920", "unit": "mg/L"}, {"measurement": "IC50", "setting": "α-amylase", "result": "> 30", "unit": "mM"}, {"measurement": "α-glucosidase IC50", "setting": "α-glucosidase; mg/mL figure given in parentheses beside mM, ref Jeong et al. (2012) [29]", "result": "> 4920", "unit": "mg/L"}, {"measurement": "IC50", "setting": "α-glucosidase; ref Jeong et al. (2012) [29]", "result": "> 30", "unit": "mM"}, {"measurement": "α-glucosidase IC50", "setting": "α-glucosidase; ref Nile and Park (2014) [34]", "result": 90.8, "unit": "mg/L"}, {"measurement": "MIC", "setting": "[16]", "result": 20, "unit": "mg/L"}, {"measurement": "MIC", "setting": "Gram-negative bacteria", "result": "10 to 80", "unit": "mg/L"}, {"measurement": "MIC", "setting": "[17]", "result": "≥ 1000", "unit": "mg/L"}]}
{"smiles": "O=C1O[C@H]([C@@H](O)CO)C(O)=C1O", "note": "[L-AA, L-ascorbic acid]", "values": [{"measurement": "DPPH IC50", "setting": "[18]", "result": "0.0057 ± 0.0003 ^f mg/mL"}, {"measurement": "ABTS IC50", "setting": "[19]", "result": "0.0316 ± 0.0003 ^e mg/mL"}, {"measurement": "FRAP", "setting": "[20]", "result": "1.618 ± 0.004 ^e µmol Fe^2+/g and 1.618 ± 0.004 ^b µmol Fe^2+/g"}, {"measurement": "DPPH IC50", "setting": "[1]; ref Barnawi et al. (2023) [28]", "result": 2.51, "unit": "mg/L"}, {"measurement": "DPPH IC50", "setting": "[1]; ref Dewi et al. (2021) [15]", "result": 3.55, "unit": "mg/L"}, {"measurement": "DPPH IC50", "setting": "[1]; ref Elemosho et al. (2021) [26]", "result": 4630, "unit": "mg/L"}]}
{"smiles": "O=C(O)CC1C(=O)Nc2cccc(O)c21", "note": "(stereo not shown) [tasselin A, 4-hydroxy-1-oxindole-3-acetic acid]", "values": [{"measurement": "IC50", "setting": "tyrosinase", "result": 0.75, "unit": "mM"}]}
{"smiles": "COc1ccc2cc3[n+](cc2c1OC)CCc1cc2c(cc1-3)OCO2", "note": "[berberine, reference compound]", "values": [{"measurement": "AChE IC50", "setting": "[21]", "result": 1.5, "unit": "mg/L"}]}
{"smiles": "COc1cc(C(O)C(CO)Oc2c(OC)cc(-c3cc(=O)c4c(O)cc(O)cc4o3)cc2OC)ccc1O", "note": "(stereo not drawn) [salcolin A, tricin 4′-O-(threo-β-guaiacylglyceryl)ether]", "values": [{"measurement": "DPPH IC50", "setting": "[1]; [22]", "result": 208.1, "unit": "mg/L"}]}
